From BindingDB's records for doi:10.1074/jbc.M112.356576 (University of Adelaide, 2012)

Biological target: T1, Bifunctional ligase/repressor BirA (Staphylococcus aureus, UniProt A0A3A5LBF0)
T1 sequence (A0A3A5LBF0 whole entry): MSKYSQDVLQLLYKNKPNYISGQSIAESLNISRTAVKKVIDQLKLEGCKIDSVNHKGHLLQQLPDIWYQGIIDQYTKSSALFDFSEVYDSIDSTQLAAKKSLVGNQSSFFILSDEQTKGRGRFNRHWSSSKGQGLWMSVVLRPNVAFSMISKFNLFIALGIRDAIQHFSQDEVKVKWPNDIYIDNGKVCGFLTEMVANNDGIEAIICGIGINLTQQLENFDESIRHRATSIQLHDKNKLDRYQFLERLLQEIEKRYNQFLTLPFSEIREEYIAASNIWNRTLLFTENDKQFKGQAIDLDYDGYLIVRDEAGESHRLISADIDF
Test: Enzyme Inhibition Assay
Excerpt: In vitro enzyme inhibition using biotin protein ligase.

| Ki | Compound |
| --- | --- |
| 1170 nM | Nc1ncnc2c1NCN2[C@@H]1O[C@H](Cn2cc(CCCCC[C@@H]3SCC4NC(=O)NC43)nn2)[C@@H](O)[C@H]1O (stereo partly drawn) [Biotin triazole, 5] |
| > 10000 nM | CC(C)(C)C(=O)OCCn1cc(CCCCC[C@@H]2SCC3NC(=O)NC32)nn1 (stereo partly drawn) [Biotin triazole, 10] |
| > 10000 nM | O=C1NC2CS[C@@H](CCCCCc3cn(CCCCOc4ccccc4)nn3)C2N1 (stereo partly drawn) [Biotin triazole, 11] |
| > 10000 nM | O=C1NC2CS[C@@H](CCCCCc3cn(CCCCOc4cccc5ccccc45)nn3)C2N1 (stereo partly drawn) [Biotin triazole, 12] |
| > 10000 nM | O=C1NC2CS[C@@H](CCCCCc3cn(CCCOc4ccc5ccccc5c4)nn3)C2N1 (stereo partly drawn) [Biotin triazole, 15] |
| > 10000 nM | Cc1ccc2oc(=O)n(CCCn3cc(COCCC[C@@H]4SCC5NC(=O)NC54)nn3)c2c1 (stereo partly drawn) [Biotin triazole, 16] |

| Compound | Ki |
| --- | --- |
| O=C1NC2CS[C@@H](CCCCCc3cn(CCCCOc4ccc5ccccc5c4)nn3)C2N1 (stereo partly drawn) [Biotin triazole, 13] | 1170 nM |
| Cc1ccc2oc(=O)n(CCCCn3cc(CCCCC[C@@H]4SCC5NC(=O)NC54)nn3)c2c1 (stereo partly drawn) [Biotin triazole, 14] | 90 nM |
